These results are taken from ChEMBL document CHEMBL4613271, “Application of Atypical Acetyl-lysine Methyl Mimetics in the Development of Selective Inhibitors of the Bromodomain-Containing Protein 7 (BRD7)/Bromodomain-Containing Protein 9 (BRD9) Bromodomains” (J Med Chem, 2020).

≈ marks a conversion by molar mass, not a printed value. Calls of active or inactive are those of the source. The calls are words filed in the database; no cut-off is given here.

The target of one data set is T1, Peregrin (Homo sapiens, UniProt P55201).
T1 sequence (P55201 whole entry): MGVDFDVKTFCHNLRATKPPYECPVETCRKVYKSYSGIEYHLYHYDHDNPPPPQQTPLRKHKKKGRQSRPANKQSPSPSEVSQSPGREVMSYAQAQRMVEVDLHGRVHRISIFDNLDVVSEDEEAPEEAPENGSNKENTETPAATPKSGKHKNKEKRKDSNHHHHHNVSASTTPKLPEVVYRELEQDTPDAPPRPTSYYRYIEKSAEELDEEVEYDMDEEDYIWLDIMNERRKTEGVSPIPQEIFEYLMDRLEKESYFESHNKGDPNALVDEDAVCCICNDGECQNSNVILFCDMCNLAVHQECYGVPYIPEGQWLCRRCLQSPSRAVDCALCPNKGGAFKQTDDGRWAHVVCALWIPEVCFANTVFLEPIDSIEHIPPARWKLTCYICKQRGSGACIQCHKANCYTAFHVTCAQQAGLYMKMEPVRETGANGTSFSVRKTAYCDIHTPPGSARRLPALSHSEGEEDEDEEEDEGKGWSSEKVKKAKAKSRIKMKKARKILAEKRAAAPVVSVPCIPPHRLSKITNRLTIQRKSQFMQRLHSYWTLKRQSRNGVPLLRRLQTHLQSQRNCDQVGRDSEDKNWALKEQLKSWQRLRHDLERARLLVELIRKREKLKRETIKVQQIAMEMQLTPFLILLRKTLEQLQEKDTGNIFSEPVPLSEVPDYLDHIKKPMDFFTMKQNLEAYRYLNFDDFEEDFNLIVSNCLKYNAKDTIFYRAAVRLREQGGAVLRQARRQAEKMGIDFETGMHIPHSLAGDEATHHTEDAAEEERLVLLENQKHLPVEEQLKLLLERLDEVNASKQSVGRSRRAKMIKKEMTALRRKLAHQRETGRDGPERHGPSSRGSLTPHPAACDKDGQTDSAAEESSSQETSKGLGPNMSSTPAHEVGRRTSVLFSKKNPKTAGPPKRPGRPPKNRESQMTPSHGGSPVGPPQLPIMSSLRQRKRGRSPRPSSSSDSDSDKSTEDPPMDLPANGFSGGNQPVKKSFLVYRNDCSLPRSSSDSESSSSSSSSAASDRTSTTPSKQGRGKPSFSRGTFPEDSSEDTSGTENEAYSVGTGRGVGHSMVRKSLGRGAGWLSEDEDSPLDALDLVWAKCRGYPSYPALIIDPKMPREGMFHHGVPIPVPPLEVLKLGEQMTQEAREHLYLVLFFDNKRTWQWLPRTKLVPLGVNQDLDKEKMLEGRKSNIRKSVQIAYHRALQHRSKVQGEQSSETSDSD
Put plainly: Binding affinity to human partial length BRPF1 (E627 to G740 residues) expressed in bacterial expression system by BROMOscan assay.

A short description of data set [1]: Solubility of compound by CLND method. Type of data set: physicochemical.
Data set [2] can be described thus: Permeability by PAMPA. Type of data set: ADME. The settings on record: read-out: permeability. Background: The PAMPA barrier holds no transporters, so it reflects passive diffusion.
Data set [3] concerns the target T2, Bromodomain-containing protein 7 (Homo sapiens, UniProt Q9NPI1).
T2 sequence (Q9NPI1 whole entry): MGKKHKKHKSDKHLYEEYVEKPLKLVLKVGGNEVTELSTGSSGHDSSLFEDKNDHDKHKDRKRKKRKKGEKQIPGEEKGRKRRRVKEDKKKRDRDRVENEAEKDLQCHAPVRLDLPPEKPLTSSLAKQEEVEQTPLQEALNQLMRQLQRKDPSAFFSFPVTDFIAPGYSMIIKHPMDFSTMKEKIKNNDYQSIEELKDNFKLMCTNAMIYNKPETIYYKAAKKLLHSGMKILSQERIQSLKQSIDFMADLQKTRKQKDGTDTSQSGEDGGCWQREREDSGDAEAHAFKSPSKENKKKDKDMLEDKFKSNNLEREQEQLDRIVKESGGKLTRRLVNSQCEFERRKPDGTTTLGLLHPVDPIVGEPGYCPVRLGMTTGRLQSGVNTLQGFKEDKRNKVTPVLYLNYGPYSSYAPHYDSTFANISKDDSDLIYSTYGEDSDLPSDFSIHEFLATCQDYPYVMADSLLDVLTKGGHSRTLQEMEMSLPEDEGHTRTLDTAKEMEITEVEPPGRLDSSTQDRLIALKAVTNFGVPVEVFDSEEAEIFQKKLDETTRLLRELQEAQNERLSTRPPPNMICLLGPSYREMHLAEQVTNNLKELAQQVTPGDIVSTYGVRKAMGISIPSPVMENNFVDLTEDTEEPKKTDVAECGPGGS
The experiment in a line: Binding affinity to human partial length BRD7 (L125 to R254 residues) expressed in mammalian expression system by BROMOscan assay.

Data set [4] has as its target B-cell CLL/lymphoma 7 protein family member B (Homo sapiens) (UniProt Q9BQE9). Put plainly: Binding affinity to BCL7B in human HuT78 cells nuclear and chromatin extracts at 10 uM incubated for 45 mins by mass spectrometry based chemoproteomic binding assay. Type of data set: cell-based.
The target in data set [5] is SWI/SNF-related matrix-associated actin-dependent regulator of chromatin subfamily A member 4 (Homo sapiens) (UniProt P51532). The experiment in a line: Binding affinity to SMARCA4 in human HuT78 cells nuclear and chromatin extracts at 10 uM incubated for 45 mins by mass spectrometry based chemoproteomic binding assay. Type of data set: cell-based.
In data set [6] the target is B-cell CLL/lymphoma 7 protein family member A (Homo sapiens) (UniProt Q4VC05). The experiment in a line: Binding affinity to BCL7A in human HuT78 cells nuclear and chromatin extracts at 10 uM incubated for 45 mins by mass spectrometry based chemoproteomic binding assay. Type of data set: cell-based.
Data set [7] has as its target T3, Bromodomain-containing protein 7 (Homo sapiens) (UniProt Q9NPI1).
T3 sequence (whole entry): T2 sequence (Q9NPI1 whole entry)
The experiment in a line: Binding affinity to BRD7 in human HuT78 cells nuclear and chromatin extracts at 10 uM incubated for 45 mins by mass spectrometry based chemoproteomic binding assay. Type of data set: cell-based.

Data set [8] deals with T4, Bromodomain-containing protein 9 (Homo sapiens, UniProt Q9H8M2).
T4 sequence (Q9H8M2 whole entry): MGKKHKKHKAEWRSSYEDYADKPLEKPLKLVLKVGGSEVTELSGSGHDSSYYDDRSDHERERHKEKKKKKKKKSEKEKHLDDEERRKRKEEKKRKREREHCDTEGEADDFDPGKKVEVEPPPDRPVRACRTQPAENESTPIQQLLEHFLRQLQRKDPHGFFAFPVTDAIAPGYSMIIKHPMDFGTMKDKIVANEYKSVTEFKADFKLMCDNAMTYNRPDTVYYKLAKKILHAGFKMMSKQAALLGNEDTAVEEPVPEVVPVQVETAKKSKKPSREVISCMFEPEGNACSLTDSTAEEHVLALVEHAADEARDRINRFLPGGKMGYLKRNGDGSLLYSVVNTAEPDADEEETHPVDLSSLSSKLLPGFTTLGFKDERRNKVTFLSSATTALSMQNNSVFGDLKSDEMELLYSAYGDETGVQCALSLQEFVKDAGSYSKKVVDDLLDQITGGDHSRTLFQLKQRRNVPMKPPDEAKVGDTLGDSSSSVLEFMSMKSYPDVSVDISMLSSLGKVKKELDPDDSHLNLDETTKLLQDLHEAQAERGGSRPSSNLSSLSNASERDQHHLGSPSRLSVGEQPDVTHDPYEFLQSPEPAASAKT
Put plainly: Binding affinity to BRD9 (unknown origin) N-terminal bromodomain by TR-FRET assay. (Time-resolved FRET reads energy transfer from a long-lived donor to a nearby acceptor.)

In data set [9] the target is T5, Bromodomain-containing protein 4 (Homo sapiens, UniProt O60885). The experiment in a line: Binding affinity to BRD4 (1) (unknown origin) N-terminal bromodomain by TR-FRET assay.
Data set [10] has as its target T5, Bromodomain-containing protein 4. Put plainly: Binding affinity to human partial length BRD4 (1) (N44 to E168 residues) expressed in bacterial expression system by BROMOscan assay.
Data set [11] has as its target SWI/SNF-related matrix-associated actin-dependent regulator of chromatin subfamily A member 2 (Homo sapiens) (UniProt P51531). Put plainly: Binding affinity to SMARCA2 in human HuT78 cells nuclear and chromatin extracts at 10 uM incubated for 45 mins by mass spectrometry based chemoproteomic binding assay. Type of data set: cell-based.
Data set [12] has as its target Protein polybromo-1 (Homo sapiens) (UniProt Q86U86). The experiment in a line: Binding affinity to PBRM1 in human HuT78 cells nuclear and chromatin extracts at 10 uM incubated for 45 mins by mass spectrometry based chemoproteomic binding assay. Type of data set: cell-based.
For data set [13], the species on record is Homo sapiens. Put plainly: Selectivity index, ratio of IC50 for binding affinity to BRD4 (1) (unknown origin) N-terminal bromodomain to IC50 for binding affinity to BRD9 (unknown origin) N-terminal bromodomain.
A short description of data set [14]: Chromatographic hydrophobicity index, logD of the compound at pH 7.4 by HPLC analysis. Type of data set: physicochemical. The following applies: buffer.
Data set [15] addresses T4, Bromodomain-containing protein 9.
Description: Binding affinity to human partial length BRD9 (R130 to V259 residues) expressed in bacterial expression system by BROMOscan assay
For data set [16] the target is unchanged. The source holds these as a separate data set.
The target in data set [17] is T2, Bromodomain-containing protein 7. Put plainly: Binding affinity to BRD7 (unknown origin).
Data set [18] in a line: Drug distribution in human HeLa cells assessed as intracellular influx/efflux ratio by mass spectrometry. Type of data set: ADME, cell-based.
For data set [19], the species on record is Homo sapiens. Put plainly: Selectivity index, ratio of IC50 for binding affinity to PCAF (unknown origin) N-terminal bromodomain to IC50 for binding affinity to BRD9 (unknown origin) N-terminal bromodomain.

Sequence of B-cell CLL/lymphoma 7 protein family member A (Homo sapiens) (Q4VC05 whole entry): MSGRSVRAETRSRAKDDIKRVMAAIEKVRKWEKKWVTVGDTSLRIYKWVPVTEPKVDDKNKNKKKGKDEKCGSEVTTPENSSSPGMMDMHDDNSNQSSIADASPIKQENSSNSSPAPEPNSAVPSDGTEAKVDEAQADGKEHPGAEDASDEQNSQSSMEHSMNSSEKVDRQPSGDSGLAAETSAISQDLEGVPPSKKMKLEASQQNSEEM
Sequence of SWI/SNF-related matrix-associated actin-dependent regulator of chromatin subfamily A member 4 (Homo sapiens) (P51532 whole entry): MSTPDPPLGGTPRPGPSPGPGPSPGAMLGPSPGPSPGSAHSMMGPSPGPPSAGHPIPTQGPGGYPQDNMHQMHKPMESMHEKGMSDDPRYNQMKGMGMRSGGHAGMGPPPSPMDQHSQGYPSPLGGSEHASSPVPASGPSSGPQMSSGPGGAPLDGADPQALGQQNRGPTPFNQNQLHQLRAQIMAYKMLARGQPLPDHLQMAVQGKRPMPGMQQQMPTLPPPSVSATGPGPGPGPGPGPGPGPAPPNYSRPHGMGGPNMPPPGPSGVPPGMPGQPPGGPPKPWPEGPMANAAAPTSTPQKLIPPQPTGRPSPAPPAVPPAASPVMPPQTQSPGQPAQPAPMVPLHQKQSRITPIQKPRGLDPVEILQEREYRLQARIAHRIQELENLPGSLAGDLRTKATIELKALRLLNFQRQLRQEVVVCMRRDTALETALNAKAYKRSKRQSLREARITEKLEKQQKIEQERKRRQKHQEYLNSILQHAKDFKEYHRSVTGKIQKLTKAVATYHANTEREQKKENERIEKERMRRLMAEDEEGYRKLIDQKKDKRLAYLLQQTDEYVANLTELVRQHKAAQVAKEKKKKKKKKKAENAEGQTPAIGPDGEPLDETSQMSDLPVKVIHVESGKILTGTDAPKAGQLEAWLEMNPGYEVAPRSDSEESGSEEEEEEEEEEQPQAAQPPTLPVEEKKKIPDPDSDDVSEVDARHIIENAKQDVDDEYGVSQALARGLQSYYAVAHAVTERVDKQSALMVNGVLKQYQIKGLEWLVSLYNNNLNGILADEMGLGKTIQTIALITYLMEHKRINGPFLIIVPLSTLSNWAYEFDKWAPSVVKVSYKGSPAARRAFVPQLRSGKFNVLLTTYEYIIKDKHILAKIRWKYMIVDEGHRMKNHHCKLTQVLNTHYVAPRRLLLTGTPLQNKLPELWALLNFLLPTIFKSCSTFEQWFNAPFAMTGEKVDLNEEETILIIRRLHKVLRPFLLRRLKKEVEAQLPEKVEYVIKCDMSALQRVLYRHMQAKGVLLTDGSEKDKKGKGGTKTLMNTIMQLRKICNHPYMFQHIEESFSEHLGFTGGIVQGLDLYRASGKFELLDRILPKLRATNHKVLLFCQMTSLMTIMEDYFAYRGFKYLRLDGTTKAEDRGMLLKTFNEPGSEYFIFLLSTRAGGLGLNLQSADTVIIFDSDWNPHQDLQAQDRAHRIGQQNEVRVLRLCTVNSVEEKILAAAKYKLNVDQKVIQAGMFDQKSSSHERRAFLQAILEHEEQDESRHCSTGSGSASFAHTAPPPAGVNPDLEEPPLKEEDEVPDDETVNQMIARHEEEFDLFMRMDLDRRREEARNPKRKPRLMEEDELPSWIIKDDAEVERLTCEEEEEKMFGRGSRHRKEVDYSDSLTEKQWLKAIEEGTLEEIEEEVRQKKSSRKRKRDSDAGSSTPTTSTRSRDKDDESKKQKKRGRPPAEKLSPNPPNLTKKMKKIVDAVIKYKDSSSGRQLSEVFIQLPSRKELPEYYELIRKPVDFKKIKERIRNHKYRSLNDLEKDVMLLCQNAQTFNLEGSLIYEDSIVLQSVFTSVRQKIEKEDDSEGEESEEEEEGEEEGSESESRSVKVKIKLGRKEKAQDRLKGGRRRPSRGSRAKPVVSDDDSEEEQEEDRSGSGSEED
Sequence of B-cell CLL/lymphoma 7 protein family member B (Homo sapiens) (Q9BQE9 whole entry): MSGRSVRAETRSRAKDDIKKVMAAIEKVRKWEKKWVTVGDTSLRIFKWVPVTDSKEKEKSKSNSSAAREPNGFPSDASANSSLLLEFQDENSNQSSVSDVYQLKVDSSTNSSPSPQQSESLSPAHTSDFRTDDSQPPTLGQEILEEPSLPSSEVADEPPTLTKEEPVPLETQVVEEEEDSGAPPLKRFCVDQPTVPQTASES
Sequence of SWI/SNF-related matrix-associated actin-dependent regulator of chromatin subfamily A member 2 (Homo sapiens) (P51531 whole entry): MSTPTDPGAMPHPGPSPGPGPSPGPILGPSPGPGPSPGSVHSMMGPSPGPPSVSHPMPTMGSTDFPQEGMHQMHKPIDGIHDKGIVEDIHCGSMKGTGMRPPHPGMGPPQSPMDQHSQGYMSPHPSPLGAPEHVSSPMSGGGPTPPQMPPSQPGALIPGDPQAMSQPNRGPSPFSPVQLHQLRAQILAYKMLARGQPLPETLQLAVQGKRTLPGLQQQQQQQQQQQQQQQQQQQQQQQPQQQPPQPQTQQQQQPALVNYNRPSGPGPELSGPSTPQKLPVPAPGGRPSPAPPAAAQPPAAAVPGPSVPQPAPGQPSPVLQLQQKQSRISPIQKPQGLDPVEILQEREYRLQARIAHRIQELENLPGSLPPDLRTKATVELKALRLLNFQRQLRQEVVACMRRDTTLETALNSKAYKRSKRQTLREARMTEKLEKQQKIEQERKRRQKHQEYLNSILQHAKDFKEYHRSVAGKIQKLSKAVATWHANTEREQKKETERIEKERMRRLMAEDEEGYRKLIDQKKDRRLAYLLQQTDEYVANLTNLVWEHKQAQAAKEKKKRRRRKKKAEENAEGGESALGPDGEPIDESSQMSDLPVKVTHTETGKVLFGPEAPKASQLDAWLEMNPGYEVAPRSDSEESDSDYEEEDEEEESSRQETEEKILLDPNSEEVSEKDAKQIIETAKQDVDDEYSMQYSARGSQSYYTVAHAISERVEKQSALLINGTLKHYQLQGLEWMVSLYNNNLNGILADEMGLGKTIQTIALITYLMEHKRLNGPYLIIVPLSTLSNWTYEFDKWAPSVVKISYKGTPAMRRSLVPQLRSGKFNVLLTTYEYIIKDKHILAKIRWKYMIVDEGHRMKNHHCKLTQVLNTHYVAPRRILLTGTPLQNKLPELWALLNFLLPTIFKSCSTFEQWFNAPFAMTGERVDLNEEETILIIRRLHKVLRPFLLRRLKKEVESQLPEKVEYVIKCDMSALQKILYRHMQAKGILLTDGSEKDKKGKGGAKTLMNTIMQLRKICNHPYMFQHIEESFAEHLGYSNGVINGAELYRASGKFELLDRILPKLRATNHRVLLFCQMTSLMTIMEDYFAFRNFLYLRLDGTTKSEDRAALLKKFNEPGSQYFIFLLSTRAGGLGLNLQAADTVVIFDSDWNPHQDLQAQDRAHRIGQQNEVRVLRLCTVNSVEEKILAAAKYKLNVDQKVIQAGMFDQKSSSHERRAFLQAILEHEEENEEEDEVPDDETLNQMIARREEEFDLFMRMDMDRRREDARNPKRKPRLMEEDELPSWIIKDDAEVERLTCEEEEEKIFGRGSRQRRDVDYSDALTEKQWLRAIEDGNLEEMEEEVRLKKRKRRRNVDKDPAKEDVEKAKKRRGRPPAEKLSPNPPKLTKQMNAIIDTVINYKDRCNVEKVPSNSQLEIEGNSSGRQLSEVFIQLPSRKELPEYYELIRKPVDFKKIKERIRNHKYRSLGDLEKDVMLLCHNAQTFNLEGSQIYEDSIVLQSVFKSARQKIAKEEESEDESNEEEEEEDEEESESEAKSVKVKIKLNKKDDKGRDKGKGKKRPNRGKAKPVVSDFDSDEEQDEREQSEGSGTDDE

`Cc1c(NCc2ccccc2N2CCN(C)CC2)cnn(C)c1=O`: the Ki at Peregrin is 251 nM; in data set [3] it was 25.1 nM; in data set [10], 25100 nM; in [15], 39.8 nM. In data set [1], the solubility (kinetic) came to 178 µg/mL (≈ 544 µM). The Papp in data set [2] turned out to be 33 ×10⁻⁶ cm/s. Also, the result in data set [4], in data set [5], in data set [6], in [7], in data set [11] and in [12] was Active. The IC50 in data set [8] is 200 nM; in data set [9], above 50100 nM. In addition, the fold selectivity in the data set filed under Homo sapiens [13] was above 250. This compound displayed a chromatographic logD in data set [14] of 1.6.

On to `C/C=C/Cn1cc(-c2cc(OC)c(C(=O)N3CCOCC3)cc2OC)c2cc[nH]c2c1=O`, for which the Kd in data set [16] is 2 nM; in data set [17] it was 100 nM.

`CCCCc1c(NCc2ccccc2N2CCN(C)CC2)cnn(C)c1=O`: the Ki at Peregrin was above 31600 nM; in [3] it was 501 nM; in data set [10] it was above 31600 nM; in [15], 63.1 nM. This compound also displayed a kinetic solubility in data set [1] of at least 228 µg/mL. The Ratio in data set [18] is recorded as 0.52. Further, in data set [2], the Papp is 25 ×10⁻⁶ cm/s. The compound further yielded a chromatographic logD in data set [14] of 3.5.

On to `Cn1ncc(NCc2ccccc2)c(Cl)c1=O`, for which the fold selectivity is 6 in the data set filed under Homo sapiens [19] and 10 in the data set filed under Homo sapiens [13]. Moreover, the results for the IC50 in data set [8] and in data set [9] were 2000 nM and 20000 nM, respectively. For the same compound, in [14], the chromatographic logD was determined as 3.2.

The term Ki denotes the dissociation constant of the complex between target and ligand, obtained from inhibition or displacement. Low readings indicate tighter binding, high ones weaker binding. One may read the solubility (kinetic) as solubility judged after dilution from a stock solution rather than from solid. For orientation: IC50 means the point on the concentration scale where inhibition reaches its midpoint. The chromatographic logD is lipophilicity estimated from chromatographic retention. In general, Kd refers to the concentration at which binding is half-saturated. The low end stands for a tighter complex, the high end for a looser complex.
